Experimental data as given in patent US9944968B2, “Control of protein glycosylation by culture medium supplementation and cell culture process parameters” (Biogen MA Inc., priority 2013, dated 2018).

Key:
[1] = system: FcγRIIIa; assay: % FcγRIIIa binding of purified product relative to Enbrel innovator material; conditions: for % FcγRIIIa: Day 14 product, ProA and HIC purified, relative to Enbrel innovator material, hypoxanthine 1 mM or guanine 0.2 mM bolus D6; for levels of FcγRIIIa binding: addition to fed-batch shake flask cultures
[2] = system: immunoadhesin-expressing CHO cells; assay: Fed-batch shake flask culture of immunoadhesin-expressing CHO cells: N-glycan (HILIC-UPLC) and ProG titer; format: cell-based, Chinese hamster; conditions: for Titer: Day 14 harvest; for % afucose / % charged / % galactosylation: fed-batch shake flask; for % afucose levels: addition to fed-batch shake flask cultures
Protocol: FIG. 3A and FIG. 3B. Effect of hypoxanthine and guanine on the growth (FIG. 3A) and viability (FIG. 3B) of fed-batch shake flask cultures of immunoadhesin-expressing CHO cells. Copper (II) sulfate was delivered as part of the 5×-concentrated DMEM/F12 feed media at a concentration of 1 mM in the feed media. The Day 14 final concentration of CuSO4 in the culture was 0.2 mM due to 20% feeding. Hypoxanthine was delivered as a 1 mM bolus from a 200 mM stock solution on Day 6 after the temperature shift. Guanine was delivered as a 0.2 mM bolus from a 100 mM stock solution on Day 6 after the temperature shift.
FIG. 4A and FIG. 4B. Effect of copper (II) sulfate on the growth (FIG. 4A) and viability (FIG. 4B) of fed-batch shake flask cultures of immunoadhesin-expressing CHO cells. Copper (II) sulfate was delivered as part of the 5×-concentrated DMEM/F12 feed media at a concentration of 1 mM in the feed media. The Day 14 final concentration of CuSO4 in the culture was 0.2 mM, due to 20% feeding. Alternatively, copper (II) sulfate was delivered as 0.2 mM and 0.5 mM boli on Day 6 from a stock solution.
Cell culture methods: Cells were thawed and maintained as in a previous report (Kshirsagar, et al. 2012 Biotechnol Bioeng, Huang, et al. Biotechnology Progress 26(5):1400-1410 (2010)). Basal medium for thaw and passing was the same as in previous reports (Kshirsagar/Huang). Briefly, cells were thawed and maintained in 3 L shake flasks (Corning Life Sciences, Corning, N.Y.) with 1 L working volumes and were passaged every 2-3 days. For maintenance cultures the incubator was controlled at 37° C. and 5% CO2. […]
(§1) Copper (II) sulfate, hypoxanthine, guanine, glucosamine, and galactose were delivered to two different immunoadhesin-expressing CHO cell cultures either as part of the feed media or as boli from distinct stock solutions. The typical culture process is a 14-day process that consists of a growth phase from Day 0 to Day 6 at 37° C. and a protein production phase from Day 6 to Day 14 at 30° C.

[3] = system: CHO-043 cells; assay: CHO-043 fed-batch shake flask culture: N-glycan (HILIC-UPLC), sialylation and ProG titer of the expressed immunoadhesin; format: cell-based, Chinese hamster
Protocol: FIG. 1A and FIG. 1B. Effect of glucosamine and galactose on the growth (FIG. 1A) and viability (FIG. 1B) of fed-batch shake flask cultures. Glucosamine was delivered as two 10 mM boli, each on Day 2 and Day 4 in both the glucosamine alone condition and the glucosamine/galactose combination condition. […] The Day 14 final concentration of galactose was 6 g/L, due to 30% feeding. Cell line: The cell line used in this study produced a growth factor receptor immunoadhesin polypeptide. The cell line was constructed using DG44 adapted to grow in serum-free medium (Prentice, 2007). The cell line DUXB11 was also used in this study. Cell culture methods: Cells were thawed and maintained as in a previous report ([…] al. 2012 Biotechnol Bioeng, Huang, et al. Biotechnology Progress 26(5):1400-1410 (2010)). Basal medium for thaw and passing was the same as in previous reports ([…]). Briefly, cells were thawed and maintained in 3 L shake flasks (Corning Life Sciences, Corning, N.Y.) with 1 L working volumes and were passaged every 2-3 days. For maintenance cultures the incubator was controlled at 37° C. and 5% CO2. Offline analysis: Samples were taken on most days and analyzed with a variety of equipment. Cell density and viability were measured using the standard technique of trypan blue exclusion using a Cedex (Roche Innovatis AG, Germany). Cell viability and growth rate of the various cultures were measured during the culture time course at specific days post-inoculation. […] The typical culture process is a 14-day process that consists of a growth phase from Day 0 to Day 6 at 37° C. and a protein production phase from Day 6 to Day 14 at 30° C. [table]

[4] = system: CHO-602; assay: CHO-602 fed-batch shake flask culture: N-glycan (HILIC-UPLC), sialylation and ProG titer; format: cell-based, Chinese hamster; conditions: for % NGNA / % afucose / TSA (mol/chain): Day 12, GlcN 10 mM bolus D6, combination: plus galactose 20 g/L in feed (4 g/L final)
Protocol: FIG. 2A and FIG. 2B. Effect of glucosamine and galactose on the growth (FIG. 2A) and viability (FIG. 2B) of fed-batch shake flask cultures of immunoadhesin-expressing CHO cells. Glucosamine was delivered as 10 mM boli on Day 6 for the 10 mM conditions and again on Day 8 for the 20 mM condition. In the glucosamine and galactose combination conditions, galactose was delivered as part of the 5×-concentrated DMEM/F12 feed media at a concentration of 20 g/L in the feed. The Day 14 final concentration of galactose was 4 g/L, due to 20% feeding.
FIG. 6A and FIG. 6B. Effect of copper (II) sulfate and Hypoxanthine-Thymidine (HT) supplement on the growth (FIG. 6A) and viability (FIG. 6B) of immunoadhesin-expressing CHO cells in fed-batch shake flasks. […] Copper (II) sulfate, hypoxanthine, and thymidine were delivered as part of the 5×-concentrated DMEM/F12 feed media at a concentration of 1 mM, 1 mM, and 0.16 mM respectively in the feed media for the HT Low condition and 1 mM, 3 mM, and 0.5 mM respectively in the feed media for the HT High condition. The Day 14 final concentration of CuSO4, hypoxanthine, and thymidine in the culture was 0.30 mM, 0.30 mM, and 0.05 mM respectively for the HT Low condition and 0.30 mM, 1 mM, and 0.16 mM respectively for the HT High condition due to 30% feeding.
Cell culture methods: Cells were thawed and maintained as in a previous report (Kshirsagar, et al. 2012 Biotechnol Bioeng, Huang, et al. Biotechnology Progress 26(5):1400-1410 (2010)). Basal medium for thaw and passing was the same as in previous reports (Kshirsagar/Huang). Briefly, cells were thawed and maintained in 3 L shake flasks (Corning Life Sciences, Corning, N.Y.) with 1 L working volumes and were passaged every 2-3 days. For maintenance cultures the incubator was controlled at 37° C. and 5% CO2.
(§2) Offline analysis: Samples were taken on most days and analyzed with a variety of equipment. Cell density and viability were measured using the standard technique of trypan blue exclusion using a Cedex (Roche Innovatis AG, Germany). Cell viability and growth rate of the various cultures were measured during the culture time course at specific days post-inoculation.
as §1

[5] = system: immunoadhesin-expressing CHO cells; assay: 3 L fed-batch bioreactor culture of immunoadhesin-expressing CHO cells: N-glycan (HILIC-UPLC), TSA and ProG titer; format: cell-based, Chinese hamster
Protocol: FIG. 5A and FIG. 5B. […] Copper (II) sulfate was delivered as part of the 5×-concentrated DMEM/F12 feed media at a concentration of 1 mM in the feed media. The Day 14 final concentration of CuSO4 in the culture was 0.25 mM, due to 25% feeding. In the CuSO4, glucosamine, and galactose combination conditions, copper (II) sulfate was delivered as part of the 5×-concentrated DMEM/F12 feed media at a concentration of 1 mM in the feed media. The Day 14 final concentration of CuSO4 in the culture was 0.22 mM, due to 22% feeding. Glucosamine was delivered as two 10 mM boli, each on Day 6 and Day 8. Galactose was delivered as part of the 5×-concentrated DMEM/F12 feed media from Day 6-14 at a concentration of 20 g/L in the feed. The Day 14 final concentration of galactose was 2.4 g/L, due to 12% feeding from Day 6-14. In the CuSO4 and hypoxanthine condition, copper (II) sulfate and hypoxanthine were delivered as part of the 5×-concentrated DMEM/F12 feed media at a concentration of 1 mM and 3 mM, respectively, in the feed media. The Day 14 final concentrations of CuSO4 and hypoxanthine in the culture were 0.23 mM and 0.7 mM, due to 23% feeding.
Bioreactor culture conditions: Fed batch cultures were performed in 5 L glass Applikon vessels using Finesse TruBio DV controllers (Finesse Solutions, San Jose, Calif.) with an initial working volume between 2-2.5 L. Bioreactors were seeded at constant seed density of 4×10^5 cells/ml. Concentrated feed medium was delivered on days 3, 5, and every day or every other day following through harvest. Temperature was maintained at 35° C. or 36° C. and pH was controlled at 7.1+/−0.2 by the addition of either 1 M sodium carbonate or carbon dioxide. Dissolved oxygen was maintained at 30%-40% by air and oxygen sparge using a drilled hole sparger. Agitation was maintained between 200-400 RPM throughout the culture to limit total gas flow, while an overlay was maintained between 0.005 and 0.04 vvm.
as §2, §1

[6] = ExptA, ProG, hypoxanthine 1 mM or guanine 0.2 mM bolus D6
[7] = ExptA, Day 14, hypoxanthine 1 mM or guanine 0.2 mM bolus D6
[8] = ExptB, ProG, hypoxanthine 1 mM or guanine 0.2 mM bolus D6
[9] = ExptB, Day 14, hypoxanthine 1 mM or guanine 0.2 mM bolus D6
[10] = Day 12, GlcN two 10 mM boli D2, D4, combination: plus galactose 20 g/L in feed (6 g/L final)
[11] = Day 12, GlcN two 10 mM boli D2, D4, combination: plus galactose 20 g/L in feed (6 g/L final), listed as glucosamine
[12] = feed supp. w/1 mM CuSO4 (0.2 mM final Day 14), Day 12
[13] = Day 14, CuSO4 1 mM in feed (0.25 mM final; 0.22 mM in combination), GlcN two 10 mM boli D6, D8, galactose 2.4 g/L final

O=c1[nH]cnc2nc[nH]c12 [Hypoxanthine, hypoxanthine]
% FcγRIIIa ([1]; ExptA): 85%
% FcγRIIIa ([1]; ExptB): 122%
levels of FcγRIIIa binding [1]: within the range of a comparator polypeptide
Titer [2, 6]: 1.7 g/L
% afucose [2, 7]: 9.5%
Titer [2, 8]: 1.6 g/L
% afucose [2, 9]: 8.3%
% afucose levels [2]: no change

N[C@H]1C(O)O[C@H](CO)[C@@H](O)[C@@H]1O (some centres unmarked) [GlcN, glucosamine]
% NGNA [3, 10]: 3.8%
% afucose [3, 10]: 1.7%
% α-gal [3, 10]: 2.4%
TSA (mol/chain) [3, 10]: 6.6 mol/chain
% α-gal [3, 11]: reduced
TSA (mol/chain) [3, 11]: 6 mol/chain
Titer ([3]; Day 12 harvest, ProG, GlcN two 10 mM boli D2, D4, combination: plus galactose (6 g/L final)): 1.8 g/L
% NGNA [4]: 1.3%
% afucose [4]: 8.9%
TSA (mol/chain) [4]: 11.1 mol/chain
% NGNA ([4]; listed as glucosamine): little effect
% afucose ([4]; listed as glucosamine): little effect
TSA (mol/chain) ([4]; listed as glucosamine): reduce sialylation
Titer ([4]; Day 14 harvest, ProG, GlcN 10 mM bolus D6, combination: plus galactose (4 g/L final)): 1.4 g/L

O=S(=O)([O-])[O-].[Cu+2] [CuSO4, copper (II) sulfate]
Titer ([2]; 0.2 mM CuSO4 D6 bolus): 1.9 g/L
% afucose ([2]; 0.2 mM CuSO4 D6 bolus, Day 12): 8.2%
% charged ([2]; 0.2 mM CuSO4 D6 bolus, Day 12): 42.1%
% galactosylation ([2]; 0.2 mM CuSO4 D6 bolus, Day 12): 70.3%
Titer ([2]; 0.5 mM CuSO4 D6 bolus): 1.9 g/L
% afucose ([2]; 0.5 mM CuSO4 D6 bolus, Day 12): 8.2%
% charged ([2]; 0.5 mM CuSO4 D6 bolus, Day 12): 42.4%
% galactosylation ([2]; 0.5 mM CuSO4 D6 bolus, Day 12): 68.5%
% afucose, % galactosylation, and % charged levels of N-linked glycosylation ([2]; copper (II) sulfate alone, shake flask): toward values associated with a comparator polypeptide
Titer ([2]; feed supp. w/1 mM CuSO4 (0.2 mM final Day 14)): 1.8 g/L
% afucose [2, 12]: 8.4%
% charged [2, 12]: 43.7%
% galactosylation [2, 12]: 62.7%
% NGNA [5, 13]: 0.7%
% afucose [5, 13]: 7.1%
% charged [5, 13]: 41.9%
% galact. [5, 13]: 65.4%
% α-gal [5, 13]: 0.4%
TSA (mol/chain) [5, 13]: 13.5 mol/chain
Titer ([5]; Day 14 harvest, CuSO4 1 mM in feed, combination with GlcN two 10 mM boli and galactose 2.4 g/L final): 2.0 g/L

Nc1nc2nc[nH]c2c(=O)[nH]1 [Guanine, guanine]
% FcγRIIIa ([1]; ExptA): 92%
% FcγRIIIa ([1]; ExptB): 121%
levels of FcγRIIIa binding [1]: within the range of a comparator polypeptide
Titer [2, 6]: 1.5 g/L
% afucose [2, 7]: 10.5%
Titer [2, 8]: 1.6 g/L
% afucose [2, 9]: 10.2%
% afucose levels [2]: no change
